According to patent US20240024290A1, “PHARMACEUTICAL COMPOSITIONS COMPRISING CANNABINOID AGONIST” (ARTELO BIOSCIENCES LIMITED, priority 2020, published 2024):
Several values for one entry are separate records, joined by “and”; a condition that tells them apart may be missing. Equal values may be shown once.

Assays:
endocannabinoid system = conditions: in vivo; cited from earlier work
[1] = Solubility study of API in liquid, semi-solid and binary excipients (visual, solvent aliquots, Parts 1 and 2); conditions: for Aliquot where API first fully dissolved, Part 2 Study: aliquots 1/2/3/4 = 0.8/0.4/0.25/0.1 % w/v
Experimental: The aim of this study was to assess the solubility of the N-(2-(tert-butyl)-1-((4,4-difluorocyclohexyl)methyl)-1H-benzimidazol-5-yl)ethanesulfonamide in a number of different excipients.
The binary semi-solid composition mixtures were manufactured as follows: • I. The semi solids were dispensed then molten overnight at ˜60° C. […] (PEG 6000) • II. PEG 400 was added the next day, as required, (when all the semi-solids were molten) • III. Binary solvent mixture containing PEG 6000 were mixed at ˜80° C. and the remaining binaries were mixed at ˜70° C., until homogenous
Where required, the semi solids were melted prior to use (overnight). The solubility of the API in the selected solvents was assessed in two parts (Part 1 and Part 2 Studies) as follows: • i. Solvent aliquots were added to pre-dispensed API while mixing using a magnetic flea and stirrer. • ii. The temperature of the solvents was maintained as follows: • a. Single-component liquids: Room temperature (ambient) • b. TPGS and PEG 1500: ˜60° C. • c. PEG 6000 and binary solvent mixtures containing PEG 6000: ˜80° C. • iii. Solvents were mixed for a maximum of 1 hour between each aliquot addition. • iv. The solvents were carefully inspected visually between aliquots. • v. The addition of solvent was stopped when: • a. After Aliquot 2 addition if API fully dissolve—(even if API dissolve after Aliquot 1, Aliquot 2 was added) • b. After adding all the solvent aliquots in Table 28 • vi.

For `CCS(=O)(=O)Nc1ccc2c(c1)nc(C(C)(C)C)n2CC1CCC(F)(F)CC1` [Compound I, N-(2-(tert-butyl)-1-((4,4-difluorocyclohexyl)methyl)-1H-benzimidazol-5-yl)ethanesulfonamide], the Appetite stimulation (endocannabinoid system) is listed as “stimulate appetite in a dose-dependent manner”, the CNS-psychoactive effects (endocannabinoid system) is listed as “does not cause CNS-psychoactive effects” and the “Aliquot where API first fully dissolved, Part 1 Study” value ([1]; in 1,2-propane diol, ambient, DND = did not dissolve even after 3 aliquots (0.0125 % w/v)) is listed as “DND*”. For the same molecule, the “Aliquot where API first fully dissolved, Part 1 Study” value ([1]; in Corn oil, ambient, DND = did not dissolve even after 3 aliquots (0.0125 % w/v)) was “DND*”, the “Aliquot where API first fully dissolved, Part 2 Study” value ([1]; in Diethylene glycol monoethyl ether, ambient) was 2nd and the “Aliquot where API first fully dissolved, Part 1 Study” value ([1]; in Diethylene glycol monoethyl ether, ambient, aliquots 1/2/3 = 0.05/0.025/0.0125 % w/v) was 1st. For the same molecule, the “Solubility range (% w/v) Above/Below” value ([1]; in Diethylene glycol monoethyl ether, ambient, listed as API) was > 0.40% w/v and < 0.80% w/v, the “Aliquot where API first fully dissolved, Part 1 Study” value ([1]; in Glycerol, ambient, DND = did not dissolve even after 3 aliquots (0.0125 % w/v)) was “DND*” and the “Aliquot where API first fully dissolved, Part 1 Study” value ([1]; in Kolliphor EL, ambient, DND = did not dissolve even after 3 aliquots (0.0125 % w/v)) was “DND*”. For the same molecule, the “Aliquot where API first fully dissolved, Part 1 Study” value ([1]; in Kolliphor ELP, ambient, DND = did not dissolve even after 3 aliquots (0.0125 % w/v)) was “DND*”, the “Aliquot where API first fully dissolved, Part 1 Study” value ([1]; in Labrafil M 2125 CS, ambient, DND = did not dissolve even after 3 aliquots (0.0125 % w/v)) was “DND*” and the “Observation of Part 2 solution on standing” value ([1]; in Labrasol ALF, after 4 aliquots (0.1 % w/v), 5 days later at ambient) was “Precipitate”. The “Aliquot where API first fully dissolved, Part 2 Study” value ([1]; in Labrasol ALF, ambient) was 3rd, the “Solubility range (% w/v) Above/Below” value ([1]; in Labrasol ALF, ambient, listed as API) was > 0.025% w/v and < 0.05% w/v and the “Aliquot where API first fully dissolved, Part 1 Study” value ([1]; in Labrasol ALF, ambient, only after stirring overnight, aliquots 1/2/3 = 0.05/0.025/0.0125 % w/v) was 2nd^#. For the same molecule, the “Aliquot where API first fully dissolved, Part 1 Study” value ([1]; in Miglyol 812 (Medium-chain Triglycerides), ambient, DND = did not dissolve even after 3 aliquots (0.0125 % w/v)) was “DND*”, the “Aliquot where API first fully dissolved, Part 2 Study” value ([1]; in Octanoic acid, ambient) was 2nd and the “Aliquot where API first fully dissolved, Part 1 Study” value ([1]; in Octanoic acid, ambient, aliquots 1/2/3 = 0.05/0.025/0.0125 % w/v) was 2nd. For the same molecule, the “Solubility range (% w/v) Above/Below” value ([1]; in Octanoic acid, ambient, listed as API) was > 0.40% w/v and < 0.80% w/v, the “Aliquot where API first fully dissolved, Part 1 Study” value ([1]; in Oleic acid, ambient, DND = did not dissolve even after 3 aliquots (0.0125 % w/v)) was “DND*” and the “Aliquot where API first fully dissolved, Part 2 Study” value ([1]; in PEG 400, ambient) was 4th. The “Aliquot where API first fully dissolved, Part 1 Study” value ([1]; in PEG 400, ambient, aliquots 1/2/3 = 0.05/0.025/0.0125 % w/v) was 2nd, the “Aliquot where API first fully dissolved, Part 2 Study” value ([1]; in PEG400:PEG 1500 (1:1)) was 1st and the “Aliquot where API first fully dissolved, Part 1 Study” value ([1]; in PEG400:PEG 1500 (1:1), aliquots 1/2/3 = 0.05/0.025/0.0125 % w/v) was 1st. For the same molecule, the “Solubility range (% w/v) Above/Below” value ([1]; in PEG400:PEG 1500 (1:1), upper limit not known) was over 0.80% w/v, the “Aliquot where API first fully dissolved, Part 2 Study” value ([1]; in PEG400:PEG 1500 (1:9)) was 1st and the “Aliquot where API first fully dissolved, Part 1 Study” value ([1]; in PEG400:PEG 1500 (1:9), aliquots 1/2/3 = 0.05/0.025/0.0125 % w/v) was 1st. For the same molecule, the “Solubility range (% w/v) Above/Below” value ([1]; in PEG400:PEG 1500 (1:9), upper limit not known) was over 0.80% w/v, the “Aliquot where API first fully dissolved, Part 2 Study” value ([1]; in PEG400:PEG 1500 (9:1)) was 1st and the “Aliquot where API first fully dissolved, Part 1 Study” value ([1]; in PEG400:PEG 1500 (9:1), aliquots 1/2/3 = 0.05/0.025/0.0125 % w/v) was 1st. The “Solubility range (% w/v) Above/Below” value ([1]; in PEG400:PEG 1500 (9:1), upper limit not known) was over 0.80% w/v, the “Aliquot where API first fully dissolved, Part 2 Study” value ([1]; in PEG1500:PEG6000 (1:1), ~80° C.) was 1st and the “Aliquot where API first fully dissolved, Part 1 Study” value ([1]; in PEG1500:PEG6000 (1:1), ~80° C., aliquots 1/2/3 = 0.05/0.025/0.0125 % w/v) was 1st. The “Solubility range (% w/v) Above/Below” value ([1]; in PEG1500:PEG6000 (1:1), ~80° C., upper limit not known) was over 0.80% w/v, the “Aliquot where API first fully dissolved, Part 2 Study” value ([1]; in PEG1500:PEG6000 (1:9), ~80° C.) was 1st and the “Aliquot where API first fully dissolved, Part 1 Study” value ([1]; in PEG1500:PEG6000 (1:9), ~80° C., aliquots 1/2/3 = 0.05/0.025/0.0125 % w/v) was 3rd. For the same molecule, the “Solubility range (% w/v) Above/Below” value ([1]; in PEG1500:PEG6000 (1:9), ~80° C., upper limit not known) was over 0.80% w/v, the “Aliquot where API first fully dissolved, Part 2 Study” value ([1]; in PEG1500:PEG6000 (9:1), ~80° C.) was 1st and the “Aliquot where API first fully dissolved, Part 1 Study” value ([1]; in PEG1500:PEG6000 (9:1), ~80° C., aliquots 1/2/3 = 0.05/0.025/0.0125 % w/v) was 1st. For the same molecule, the “Solubility range (% w/v) Above/Below” value ([1]; in PEG1500:PEG6000 (9:1), ~80° C., upper limit not known) was over 0.80% w/v, the “Aliquot where API first fully dissolved, Part 2 Study” value ([1]; in PEG1500:TPGS (1:1)) was 1st and the “Aliquot where API first fully dissolved, Part 1 Study” value ([1]; in PEG1500:TPGS (1:1), aliquots 1/2/3 = 0.05/0.025/0.0125 % w/v) was 1st. For the same molecule, the “Solubility range (% w/v) Above/Below” value ([1]; in PEG1500:TPGS (1:1), upper limit not known) was over 0.80% w/v.
